Laboratory results taken from ChEMBL document CHEMBL5724914, “Linking interpersonal differences in gut microbiota composition and drug biotransformation activity” (2024).

How the values were obtained:
[1] = (§1) The drug is tested on WLS-077 corresponding to human gut metagenome with ENA study accession number: PRJEB37062 and ENA sample accession number: ERS12561750 for biotransformation under anaerobic condition. The drug concentrations were measured over 9 timepoints collected between 0 and 24 hours of incubation by liquid-chromatography-coupled mass spectrometry (LC–MS); conditions: 2 µM
[2] = human gut metagenome, 24 h, 2 µM
[3] = human gut metagenome, 24 h, 2 µM; remark: listed apart in the source
[4] = human gut metagenome, 24 h, 2 µM; remark: listed apart in the source
[5] = as §1, with “Z-013” for “WLS-077”, “rabbit” for “human”, “ERS12561813” for “ERS12561750”; conditions: 2 µM
[6] = human gut metagenome, 24 h, 2 µM; remark: listed apart in the source
[7] = as §1, with “WLS-069” for “WLS-077”, “ERS12561748” for “ERS12561750”; conditions: 2 µM
[8] = human gut metagenome, 24 h, 2 µM; remark: listed apart in the source
[9] = human gut metagenome, 24 h, 2 µM; remark: listed apart in the source
Note: call rule not given here.

Structure (SMILES) | Bacterial Biotransformation [1] | Bacterial Biotransformation [2] | Bacterial Biotransformation [3] | Bacterial Biotransformation [4] | Bacterial Biotransformation [5] | Bacterial Biotransformation [6] | Bacterial Biotransformation [7] | Bacterial Biotransformation [8] | Bacterial Biotransformation [9]
COc1ccc2c(c1)c(CC(=O)O)c(C)n2C(=O)c1ccc(Cl)cc1 [INDOMETHACIN] | Compound metabolized | Compound metabolized | Compound metabolized | Compound NOT metabolized | Compound NOT metabolized | Compound metabolized | Compound metabolized | Compound NOT metabolized | Compound metabolized
CC(CCc1ccccc1)NCC(O)c1ccc(O)c(C(N)=O)c1 (stereo unspecified) [LABETALOL] | Compound NOT metabolized | Compound NOT metabolized | Compound NOT metabolized | Compound NOT metabolized | Compound NOT metabolized | Compound NOT metabolized | Compound NOT metabolized | Compound NOT metabolized | Compound NOT metabolized
Nc1nnc(-c2cccc(Cl)c2Cl)c(N)n1 [LAMOTRIGINE] | Compound NOT metabolized | Compound NOT metabolized | Compound NOT metabolized | Compound NOT metabolized | Compound NOT metabolized | Compound NOT metabolized | Compound NOT metabolized | Compound NOT metabolized | Compound NOT metabolized
OC(c1cc(C(F)(F)F)nc2c(C(F)(F)F)cccc12)C1CCCCN1 (stereo unspecified) [MEFLOQUINE] | Compound metabolized | Compound metabolized | Compound NOT metabolized | Compound metabolized | Compound NOT metabolized | Compound metabolized | Compound metabolized | Compound NOT metabolized | Compound NOT metabolized
CC(=O)O[C@]1(C(C)=O)CC[C@H]2[C@@H]3C=C(C)C4=CC(=O)CC[C@]4(C)[C@H]3CC[C@@]21C [MEGESTROL ACETATE] | Compound metabolized | Compound metabolized | Compound metabolized | Compound metabolized | Compound metabolized | Compound metabolized | Compound metabolized | Compound metabolized | Compound metabolized
CC12CC3CC(C)(C1)CC(N)(C3)C2 [MEMANTINE] | Compound NOT metabolized | Compound NOT metabolized | Compound NOT metabolized | Compound NOT metabolized | Compound NOT metabolized | Compound NOT metabolized | Compound NOT metabolized | Compound NOT metabolized | Compound NOT metabolized
Cc1cc(C)cc(OCC2CNC(=O)O2)c1 (stereo unspecified) [METAXALONE] | Compound metabolized | Compound NOT metabolized | Compound NOT metabolized | Compound metabolized | Compound NOT metabolized | Compound metabolized | Compound metabolized | Compound NOT metabolized | Compound metabolized
COC(=O)C(c1ccccc1)C1CCCCN1 (stereo unspecified) [METHYLPHENIDATE] | Compound NOT metabolized | Compound NOT metabolized | Compound NOT metabolized | Compound NOT metabolized | Compound NOT metabolized | Compound metabolized | Compound NOT metabolized | Compound NOT metabolized | Compound NOT metabolized
CN1CCN2c3ccccc3Cc3ccccc3C2C1 (stereo unspecified) [MIANSERIN] | Compound NOT metabolized | Compound NOT metabolized | Compound metabolized | Compound NOT metabolized | Compound NOT metabolized | Compound metabolized | Compound metabolized | Compound NOT metabolized | Compound NOT metabolized
CC#C[C@]1(O)CC[C@H]2[C@@H]3CCC4=CC(=O)CCC4=C3[C@@H](c3ccc(N(C)C)cc3)C[C@@]21C [MIFEPRISTONE] | Compound NOT metabolized | Compound NOT metabolized | Compound NOT metabolized | Compound NOT metabolized | Compound metabolized | Compound metabolized | Compound metabolized | Compound NOT metabolized | Compound NOT metabolized
CC(C)(C)NCC(O)COc1cccc2c1CC(O)C(O)C2 (stereo unspecified) [NADOLOL] | Compound metabolized | Compound NOT metabolized | Compound NOT metabolized | Compound NOT metabolized | Compound NOT metabolized | Compound NOT metabolized | Compound metabolized | Compound NOT metabolized | Compound NOT metabolized
CC(C)[C@H]1CC[C@H](C(=O)N[C@H](Cc2ccccc2)C(=O)O)CC1 [NATEGLINIDE] | Compound metabolized | Compound metabolized | Compound metabolized | Compound metabolized | Compound metabolized | Compound metabolized | Compound metabolized | Compound metabolized | Compound metabolized
CN(C)C(=O)Oc1cccc([N+](C)(C)C)c1.[Br-] [NEOSTIGMINE BROMIDE] | Compound NOT metabolized | Compound NOT metabolized | Compound NOT metabolized | Compound NOT metabolized | Compound NOT metabolized | Compound NOT metabolized | Compound NOT metabolized | Compound NOT metabolized | Compound NOT metabolized
Cc1ccccc1C(OCCN(C)C)c1ccccc1.O=C(O)CC(O)(CC(=O)O)C(=O)O (stereo unspecified) [ORPHENADRINE CITRATE] | Compound NOT metabolized | Compound NOT metabolized | Compound metabolized | Compound NOT metabolized | Compound NOT metabolized | Compound metabolized | Compound NOT metabolized | Compound NOT metabolized | Compound NOT metabolized
CC(=O)O[C@H]1C(=O)[C@@]2(C)[C@H]([C@H](OC(=O)c3ccccc3)[C@]3(O)C[C@H](OC(=O)[C@H](O)[C@@H](NC(=O)c4ccccc4)c4ccccc4)C(C)=C1C3(C)C)[C@]1(OC(C)=O)CO[C@@H]1C[C@@H]2O [PACLITAXEL] | Compound metabolized | Compound NOT metabolized | Compound NOT metabolized | Compound metabolized | Compound metabolized | Compound NOT metabolized | Compound metabolized | Compound NOT metabolized | Compound NOT metabolized
COc1ccc(Cc2nccc3cc(OC)c(OC)cc23)cc1OC [PAPAVERINE] | Compound NOT metabolized | Compound metabolized | Compound metabolized | Compound metabolized | Compound NOT metabolized | Compound metabolized | Compound metabolized | Compound NOT metabolized | Compound metabolized
CC(=O)CCCCn1c(=O)c2c(ncn2C)n(C)c1=O [PENTOXIFYLLINE] | Compound NOT metabolized | Compound NOT metabolized | Compound NOT metabolized | Compound NOT metabolized | Compound NOT metabolized | Compound NOT metabolized | Compound NOT metabolized | Compound NOT metabolized | Compound NOT metabolized
CCCN1C[C@H](CSC)C[C@@H]2c3cccc4[nH]cc(c34)C[C@H]21.CS(=O)(=O)O [PERGOLIDE MESYLATE] | Compound NOT metabolized | Compound NOT metabolized | Compound NOT metabolized | Compound NOT metabolized | Compound NOT metabolized | Compound NOT metabolized | Compound NOT metabolized | Compound NOT metabolized | Compound NOT metabolized
CC(C)(C)N.CCC[C@H](N[C@@H](C)C(=O)N1[C@H](C(=O)O)C[C@@H]2CCCC[C@@H]21)C(=O)OCC [PERINDOPRIL ERBUMINE] | Compound NOT metabolized | Compound metabolized | Compound metabolized | Compound NOT metabolized | Compound NOT metabolized | Compound metabolized | Compound metabolized | Compound metabolized | Compound metabolized
